Several values for one entry are separate records, joined by “and”; a condition that tells them apart may be missing. Equal entries are not always repeated.
Experiment: Salmon calcitonin/PTS893 monkey study: urinalysis; for NTx/Crea: test concentration or dose not given here; for Pyr/Crea: test concentration or dose not given here
Conditions: urine
[1] = female monkeys, day 13 of dosing
[2] = female monkeys, day −7 relative to start of dosing
[3] = female monkeys, day −8 relative to start of dosing
[4] = male monkeys, day −5 relative to start of dosing
[5] = male monkeys, day −6 relative to start of dosing

**Q.** Which CREAT [1] does the source give for “Leu8, Asp10, Lysll, A1a16, G1n18, Thr33, A1a34 human PTH 1-34 [PTS893, Leu8, Asp10, Lysll, A1a16, G1n18, Thr33, A1a34 human PTH 1-34 [hPTH(1-34)]]” here?
**A.** 5620 µmol/L and 8060 µmol/L

**Q.** What about the “Ca2+” value [1] of the same substance?
**A.** 20.05 mmol/L and 12.35 mmol/L

**Q.** What about the “Cl−” value [1] of the same substance?
**A.** 101 mmol/L and 133 mmol/L

**Q.** What about the D-PYR [1] of the same substance?
**A.** 1356 nmol/L and 2036 nmol/L

**Q.** What about the LDH [1] of the same substance?
**A.** 10.0 IU/L and 9.0 IU/L

**Q.** And the “Mg2+” value [1]?
**A.** 6.90 mmol/L and 5.90 mmol/L

**Q.** And the NTx/Crea [1]?
**A.** 447 nME/mM and 705 nME/mM

**Q.** What about the Pyr/Crea [1] of the same substance?
**A.** 241 nM/mM and 253 nM/mM

**Q.** What about the VOLUME [1] of the same substance?
**A.** 52 mL and 42 mL

**Q.** And the NTx/Crea [2]?
**A.** 576 nME/mM and 634 nME/mM

**Q.** What about the Pyr/Crea [2] of the same substance?
**A.** 163 nM/mM and 181 nM/mM

**Q.** And the CREAT [3]?
**A.** 19160 µmol/L and 14060 µmol/L

**Q.** And the “Ca2+” value [3]?
**A.** 11.50 mmol/L and 6.60 mmol/L

**Q.** What about the “K+” value [3] of the same substance?
**A.** 302 mmol/L and 164 mmol/L

**Q.** And the LDH [3]?
**A.** 11.0 IU/L and 18.0 IU/L

**Q.** What about the “Mg2+” value [3] of the same substance?
**A.** 7.35 mmol/L and 4.00 mmol/L

**Q.** What about the “Na+” value [3] of the same substance?
**A.** 145 mmol/L and 118 mmol/L

**Q.** And the “Ca2+” value (male monkeys, day 13 of dosing)?
**A.** 7.55 mmol/L and 13.10 mmol/L

**Q.** And the I.PHOS (male monkeys, day 13 of dosing)?
**A.** 0.10 mmol/L and 0.17 mmol/L

**Q.** And the “K+” value (male monkeys, day 13 of dosing)?
**A.** 107 mmol/L and 69 mmol/L

**Q.** What about the LDH (male monkeys, day 13 of dosing) of the same substance?
**A.** 14.0 IU/L and 19.0 IU/L

**Q.** What about the “Mg2+” value (male monkeys, day 13 of dosing) of the same substance?
**A.** 8.70 mmol/L and 5.25 mmol/L

**Q.** What about the NAG (male monkeys, day 13 of dosing) of the same substance?
**A.** 2.9 IU/l and 2.6 IU/l

**Q.** What about the NTx/Crea (male monkeys, day 13 of dosing) of the same substance?
**A.** 621 nME/mM and 547 nME/mM

**Q.** And the Pyr/Crea (male monkeys, day 13 of dosing)?
**A.** 214 nM/mM and 204 nM/mM

**Q.** And the CREAT [4]?
**A.** 16160 µmol/L and 16120 µmol/L

**Q.** What about the CTx [4] of the same substance?
**A.** 11865 µg/L and 20108 µg/L

**Q.** And the D-PYR [4]?
**A.** 1660 nmol/L and 2278 nmol/L

**Q.** What about the NTx [4] of the same substance?
**A.** 5403 nM BCE and 8757 nM BCE

**Q.** What about the NTx/Crea [4] of the same substance?
**A.** 334 nME/mM and 543 nME/mM

**Q.** And the Pyr/Crea [4]?
**A.** 103 nM/mM and 141 nM/mM

**Q.** What about the CREAT [5] of the same substance?
**A.** 16160 µmol/L and 9940 µmol/L

**Q.** And the “Ca2+” value [5]?
**A.** 5.10 mmol/L and 3.50 mmol/L

**Q.** What about the “K+” value [5] of the same substance?
**A.** 86 mmol/L and 125 mmol/L

**Q.** What about the LDH [5] of the same substance?
**A.** 7.0 IU/L and 9.0 IU/L

Reference: patent US20130040882A1, “USE OF FIBROBLAST GROWTH FACTOR FRAGMENTS” (NOVARTIS AG, priority 2003, published 2013)
